Data taken from patent US11505531B2 (SOUTHERN RESEARCH INSTITUTE, priority 2018, dated 2022).

Tests used:
[1] = target: T1, TGF-β mediated by TSP-1 (purified human platelet TSP-1 + recombinant latent TGF-β1) (Homo sapiens, UniProt P07996); test: In vitro ELISA assay: TSP-1 incubated with compound, then with recombinant latent TGF-β1; active TGF-β detected; type: biochemical; conditions: read-out: Inhibition of TGF-β mediated by TSP-1 in vitro Elisa assay at [Inhibitor]; for inhibition at 0.0001 µM: At 100 pM
T1 construct: purified human platelet TSP-1 was incubated with compounds; tissue R&D Systems (latent TGF-β1 only); host or cells: human platelets (TSP-1)
Experimental: For initial screening, an ELISA-based screening assay was used in which purified human platelet TSP-1 was incubated with compounds and then incubated with recombinant latent TGF-β1 (purchased from R&D Systems). Activity is measured in a commercially available ELISA which detects only active TGF-β (R &D Systems). Activity in the presence of compounds is compared to activity in TSP-1+latent TGF-β samples without inhibitory compounds (Lu et al. (2016) Am J Pathol 186:678-690).

TGF-β mediated by TSP-1 = test: Cell-based assay of inhibition of TGF-β mediated by TSP-1; parameters: species or system human; conditions: for inhibition at 0.01 µM / inhibition at 0.1 µM / inhibition at 1 µM / IC50: Homo sapiens; for inhibition at 0.01 µM: At 10 nM; for inhibition at 0.01 µM / inhibition at 0.1 µM / inhibition at 1 µM: read-out: Inhibition of TGF-β mediated by TSP-1 cell-based assay at [Inhibitor]; for inhibition at 0.1 µM: At 100 nM; for IC50: assay not stated, given only for compounds tested in the cell-based assay
Experimental: To specifically assess activity of compounds in liver cell specific assays, two different assays were used. In the first, human hepatic stellate cells were incubated overnight in low serum media to condition the media with secreted latent […]. Purified TSP1 either preincubated with compounds or not will be added to cultures and then conditioned media harvested to assess TGF-β biological activity using the R&D Systems ELISA as above. Hepatic stellate cells will be purchased from commercial sources. Although hepatic stellate cells are the primary drivers of liver fibrosis, conditions which drive liver fibrosis can induce hepatocyte TSP-1 expression which can then have paracrine effects on controlling TGF-β activation in hepatic stellate cells. Furthermore, TGF-β can negatively impact hepatocyte regeneration following injury. Therefore, the ability of compounds to block TSP-1 activation of latent TGF-β will also be assessed in cultured primary human hepatocytes following the protocol described for the hepatic stellate cells. Similar approaches have successfully been used to screen compounds which inhibit human myeloma cell derived latent TGF-β activation by TSP-1 (Lu et al. (2016) Am J Pathol 186:678-690).

CAG-heparanase MM cells = test: PAI-1 promoter luciferase reporter assay of conditioned media of TSP1-treated CAG-heparanase MM cells; type: cell-based, human; conditions: cells treated with 67 nM TSP1
Experimental: Referring to FIG. 4B, CAG-heparanase MM cells were treated with 67 nM TSP1 and conditioned media were assessed for TGF-β activity using PAI-1 promoter luciferase reporter assay. There is ˜[…] TGF-β in the added TSP1 and LSKL blocks 80% of the CAG-heparanase MM cell generated TGF-β activity.

CAG human myeloma cells = test: SCID-tibia MM model, tumor burden (bioluminescence, serum Ig kappa); type: in vivo, SCID mice; conditions: LSKL 30 mg/kg/day by subcutaneous osmotic pump, 2 and 4 weeks
Experimental: Referring to FIG. 2A and FIG. 2B, CAG human myeloma cells were injected into the intratibial marrow space of SCID mice. After 2 weeks, tumors were imaged by bioluminescence and serum 1 g kappa levels measured. Mice were randomized to equalize 1 g kappa levels. Osmotic pumps were implanted subcutaneously to deliver saline or LSKL peptide (30 mg/kg/day) (n=10/group). Tumors were imaged and serum 1 g kappa levels measured at 2 and 4 weeks of treatment. Data are means±SEM. Bioluminescence; *p=0.019 ANOVA, serum kappa; p=0.037, t-test.

phospho-Smad 2 = test: Phospho-Smad 2 staining of tibiae from mice injected with CAG MM cells; type: in vivo; conditions: 4 weeks of treatment
Experimental: Referring to FIG. 3A-C, at 4 weeks of treatment, tibiae from mice injected with CAG MM cells were fixed and stained with antibody to phosphor-Smad 2. Left panels are from 2 different saline treated mice and the right panels are from LSKL-treated mice. Pixels of brown staining were quantified in 4 fields per animal. 5-6 animals per group were analyzed. Data are the percent area exceeding the threshold for positive staining (FIG. 3A). […] P=0.004.

MSCs = test: Osteoblast differentiation by MSCs under osteogenic conditions (alkaline phosphatase staining, Runx2 RT-PCR); type: cell-based; conditions: osteogenic media, TSP1 10 nM + LSKL 25 μM, 20 days
Experimental: Referring to FIG. 1A, MSCs were grown to confluence in basal (control) media. Cells were treated with control growth media, osteogenic media, or osteogenic media with TGF-β (5 ng/mL) or stripped TSP1 (10 nM), TSP1+LSKL (25 μM), TSP1+SLLK (25 μM control peptide), or TSP1+anti-TGF-β (5 μg/mL). Cultures were fed daily for 20 days. Alkaline phosphatase staining is representative of triplicate wells.
Referring to FIG. 1B, cells were treated every 2 days for 20 days with MSC growth media (control) or osteogenic media with TGF-β (5 ng/mL) or TSP1 (10 nM)±daily treatment with 25 μM LSKL or SLLK peptides. RNA isolated from cells was used for RT-PCR analysis of Runx2 expression. Samples were run in duplicate and each experimental treatment in triplicate.

CAG MM cells = test: Phospho-Smad 2 immunoblot in TSP1-treated CAG MM cells; type: cell-based, human; conditions: 30 nM TSP1 for 6 hrs ± LSKL
Experimental: Referring to FIG. 4A, CAG MM cells were incubated with 30 nM TSP1 for 6 hrs±LSKL or SLLK. Cell lysates were immunoblotted for phosphor-Smad 2. Blots were stripped and reprobed for total Smad 2/3 and GAPDH. Results are normalized to GAPDH (untreated controls=1). LSKL reduces TSP1 induced treatment or luciferase activity in cells treated with active TGF-β (not shown).

[2] = cited from earlier work
[3] = 30 mg/kg i.p., 3 times weekly, 15 weeks; cited from earlier work

T1 sequence (P07996 19-1170): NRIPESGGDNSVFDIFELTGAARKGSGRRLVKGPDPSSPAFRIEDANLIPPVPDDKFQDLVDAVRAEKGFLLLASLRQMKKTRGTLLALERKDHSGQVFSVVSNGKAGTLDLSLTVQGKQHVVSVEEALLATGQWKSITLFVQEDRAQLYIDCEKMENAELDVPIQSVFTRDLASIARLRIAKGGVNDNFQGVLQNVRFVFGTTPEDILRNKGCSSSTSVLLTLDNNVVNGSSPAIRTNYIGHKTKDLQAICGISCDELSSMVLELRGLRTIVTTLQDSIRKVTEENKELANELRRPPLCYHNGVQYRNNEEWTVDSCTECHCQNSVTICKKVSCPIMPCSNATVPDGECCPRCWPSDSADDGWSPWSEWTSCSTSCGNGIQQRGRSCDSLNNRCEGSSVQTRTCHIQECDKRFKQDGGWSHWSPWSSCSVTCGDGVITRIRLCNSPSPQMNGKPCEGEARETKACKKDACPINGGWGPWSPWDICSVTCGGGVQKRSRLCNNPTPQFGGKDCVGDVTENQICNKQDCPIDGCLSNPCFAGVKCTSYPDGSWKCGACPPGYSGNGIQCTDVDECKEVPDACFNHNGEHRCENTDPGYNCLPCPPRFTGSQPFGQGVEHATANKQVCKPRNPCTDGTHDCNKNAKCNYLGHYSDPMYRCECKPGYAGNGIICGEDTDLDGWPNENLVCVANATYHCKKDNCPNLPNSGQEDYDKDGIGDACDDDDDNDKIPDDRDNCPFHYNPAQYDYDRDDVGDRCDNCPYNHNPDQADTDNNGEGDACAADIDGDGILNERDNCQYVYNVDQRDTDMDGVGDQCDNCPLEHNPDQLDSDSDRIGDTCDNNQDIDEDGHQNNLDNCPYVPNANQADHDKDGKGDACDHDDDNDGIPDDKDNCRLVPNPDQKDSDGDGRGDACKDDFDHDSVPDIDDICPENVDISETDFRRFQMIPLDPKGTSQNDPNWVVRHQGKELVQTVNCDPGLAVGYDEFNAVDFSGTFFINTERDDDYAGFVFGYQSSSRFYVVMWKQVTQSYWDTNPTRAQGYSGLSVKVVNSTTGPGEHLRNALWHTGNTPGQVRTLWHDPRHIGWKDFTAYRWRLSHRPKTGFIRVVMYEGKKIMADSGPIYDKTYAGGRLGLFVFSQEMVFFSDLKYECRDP

Compound | inhibition at 0.01 µM (TGF-β mediated by TSP-1) | inhibition at 0.1 µM (TGF-β mediated by TSP-1) | inhibition at 1 µM (TGF-β mediated by TSP-1) | IC50 (TGF-β mediated by TSP-1) | further results
NCCCC[C@@H]1NC(=O)CNC1=O [Compound 1, (S)-3-(4-aminobutyl)piperazine-2,5-dione] | 38% | 59% | 74.5% |  | inhibition at 10 pM [1]: -67%; inhibition at 50 pM [1]: -4%; inhibition at 0.0001 µM [1]: 37%
CC1(C)NC(=O)[C@H](CCCCN)NC1=O [Compound 2, (S)-6-(4-aminobutyl)-3,3-dimethylpiperazine-2,5-dione] | 38% | 71% | 76% |  | inhibition at 10 pM [1]: 73%; inhibition at 50 pM [1]: 91%; inhibition at 0.0001 µM [1]: 89%
Nc1ccc(C[C@@H]2NC(=O)CNC2=O)cc1 [Compound 3, (S)-3-(4-aminobenzyl)piperazine-2,5-dione] | 13% | 32% | 75% |  | inhibition at 10 pM [1]: 66%; inhibition at 50 pM [1]: 68%; inhibition at 0.0001 µM [1]: 90%
CC1(C)NC(=O)[C@H](Cc2ccc(N)cc2)NC1=O [Compound 4, (S)-6-(4-aminobenzyl)-3,3-dimethylpiperazine-2,5-dione] | 80% | 78% | 83% | 1 nM | 
CC1(C)NC(=O)[C@H](Cc2cccc(CN)c2)NC1=O [Compound 6] | 75% | 96% | 97% | 1 nM | 
NCCCC[C@@H]1NC(=O)C2(CCCC2)NC1=O [Compound 7] | 72% | 89% | 92% | 0.85 nM | 
Nc1ccc(C[C@@H]2NC(=O)C3(CCC3)NC2=O)cc1 [Compound 8, (S)-7-(4-aminobenzyl)-5,8-diazaspiro[3.5]nonane-6,9-dione] | 62% | 89% | 92% | 4 nM | 
Nc1ccc(C[C@@H]2NC(=O)C3(CCCC3)NC2=O)cc1 [Compound 9, (S)-8-(4-aminobenzyl)-6,9-diazaspiro[4.5]decane-7,10-dione] | 40% | 92% | > 100% | 11 nM | 
CC1(C)NC(=O)[C@@H](CCCCN)NC1=O [Compound 10, (R)-6-(4-aminobutyl)-3,3-dimethylpiperazine-2,5-dione] |  |  |  |  | Inhibition of TGF-β mediated by TSP-1 cell-based assay (result in words) (TGF-β mediated by TSP-1): Inactive
CC1(C)NC(=O)[C@H](Cc2ccc(C(N)=O)cc2)NC1=O [Compound 11, (S)-4-((5,5-dimethyl-3,6-dioxopiperazin-2-yl)methyl)benzamide] | 25% | 39% | 40% |  | 
NC(=O)c1ccc(C[C@@H]2NC(=O)CNC2=O)cc1 [Compound 12, (S)-4-((3,6-dioxopiperazin-2-yl)methyl)benzamide] | 40% | 65.6% | 68% |  | 
NC(=O)c1ccc(C[C@@H]2NC(=O)C3(CCCC3)NC2=O)cc1 [Compound 13, (S)-4-((7,10-dioxo-6,9-diazaspiro[4.5]decan-8-yl)methyl)benzamide] | 8% | 24.6% | 19.6% |  | 
NCCC[C@@H]1NC(=O)C2(CCCC2)NC1=O [Compound 14, (S)-8-(3-aminopropyl)-6,9-diazaspiro[4.5]decane-7,10-dione] | 54% | 85% | 90% |  | 
Nc1ccc(C[C@@H]2NC(=O)C3(CCCCC3)NC2=O)cc1 [Compound 15, (S)-3-(4-aminobenzyl)-1,4-diazaspiro[5.5]undecane-2,5-dione] | 49% | 85% | 94% |  | 
LSKL |  |  |  |  | block of CAG-heparanase MM cell generated TGF-β activity (CAG-heparanase MM cells): 80%; MM tumor burden (CAG human myeloma cells): Reduces MM Tumor Burden; phospho-Smad 2 in the bone marrow (phospho-Smad 2): Reduces Phospho-Smad 2; osteoblast differentiation by MSCs (MSCs): Increases Osteoblast Differentiation; TGF-β activity (phospho-Smad 2) in CAG MM cells (CAG MM cells): Reduces TGF-B Activity; plasma stability half-life [2]: 2.1 min; necropsy findings after chronic treatment [3]: no inflammation, no tumors in all major organs, and no impairment of wound healing
